{"source": "patent US8497382B2", "about": "“Carboxylic acid derivative containing thiazole ring and pharmaceutical use thereof” (Mitsubishi Tanabe Pharma Corporation, priority 2008, dated 2013)", "key": {"[1]": {"tested_on": "high cholesterol diet-treated rat", "test": "Influence on serum lipid of high cholesterol diet-treated rat", "assay_type": "in vivo, SD rats", "conditions": "once a day for 5 days, high cholesterol diet rats", "method": "2) Influence on Serum Lipid of High Cholesterol Diet-Treated Rat\n8-week-old male SD rats (manufactured by SEAC Yoshitomi, Ltd.) were raised on a standard diet CE-2 (manufactured by Japan Clea, Inc.) added with 1% cholesterol, 2% olive oil and 0.2% cholic acid, from one week before test compound administration to the last day of the administration. A test compound and a control compound (GW-9578) were dissolved or suspended in 1% ethanol and 0.05% Tween80 (final concentration), and 0.5% hydroxypropylmethyl cellulose (HPMC) was added to adjust to a given concentration. The prepared solution was orally administered once a day for 5 days. After administration for 5 days, blood samples were collected from the jugular vein under non-fasting condition and blood lipid was measured by an enzyme method. The lowering rate was calculated by determining the rate of a value obtained by subtracting the average blood TG (or average blood TC) of a drug administration group from the average blood triglyceride (TG) (or average blood total cholesterol (TC)) of a vehicle administration group, to the average blood TG (or average blood TC) of the vehicle administration group."}, "normal rats": {"tested_on": "normal rats", "test": "Blood triglyceride (TG)-lowering action in normal rats", "assay_type": "in vivo", "conditions": "normal male SD rats; for TG lowering rate: p.o., once a day for 4 days, non-fasting; for TG-lowering action: 0.01 mg/kg", "method": "1) Blood Triglyceride (TG)-Lowering Action in Normal Rats\n7 to 9-week-old male SD rats (manufactured by SEAC Yoshitomi, Ltd.) were used for the test. A test compound and a control compound (GW-9578: J. Med. Chem. 1999, 42, 3785-3788) were dissolved or suspended in 1% ethanol, 0.05% Tween80 (final concentration), and 0.5% hydroxypropylmethyl cellulose (HPMC) was added to adjust to a given concentration. The prepared solution was orally administered once a day for 4 days. After administration for 4 days, blood samples were collected from the jugular vein under non-fasting condition and blood TG was measured by an enzyme method. The lowering rate was calculated by determining the rate of a value obtained by subtracting the average blood TG of a drug administration group from the average blood TG of a vehicle administration group, to the average blood TG of the vehicle administration group."}, "[2]": {"biological_target": "T1, Human Peroxisome Proliferator-Activated Receptor (PPAR)α (Homo sapiens, UniProt Q07869)", "T1 construct": "expressed in transfected cells", "T1 sequence (Q07869 239-466 limits assumed)": "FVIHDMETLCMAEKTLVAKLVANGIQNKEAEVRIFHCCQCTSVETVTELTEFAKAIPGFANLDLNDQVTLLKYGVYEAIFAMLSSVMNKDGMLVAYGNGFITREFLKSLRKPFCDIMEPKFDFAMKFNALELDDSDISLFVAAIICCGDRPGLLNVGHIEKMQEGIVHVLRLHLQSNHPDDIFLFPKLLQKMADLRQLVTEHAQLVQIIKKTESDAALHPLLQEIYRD", "test": "Transactivation test for human PPARα (GAL4-hPPARαLBD luciferase reporter in CV-1 cells)", "assay_type": "cell-based", "conditions": "for pEC50: CV-1 cells, GAL4-hPPARαLBD, luciferase activity after 24 hr, read-out: transactivation action (EC50, nmol/l)", "text": "Transactivation Test for Human Peroxisome Proliferator-Activated Receptor (PPAR)α\nCV-1 cells (CCL-70, manufactured by Dainippon Pharma Co., Ltd.) cultured in Dulbecco's Modified Eagle Medium (DMEM) containing 10% fetal bovine serum (FBS) were transfected, using Lipofectamine 2000 (manufactured by Invitrogen), with pBIND vector (manufactured by Promega) that expresses a fusion protein of a DNA binding region of a yeast transcription factor (GAL4) and a human PPARα ligand binding region (GAL4-hPPARαLBD, manufactured based on Diabetes 47: 1841-1847, 1998), and an internal standard renilla luciferase, and GAL4 responsive TK vector that expresses reporter firefly luciferase (manufactured by Promega). 24 hr later, the medium was changed to a serum free medium containing a test compound, and the luciferase activity after 24 hr was measured."}, "[3]": {"test": "Metabolizing isoform identification test (oxidative metabolism by microsome), human liver microsome", "assay_type": "in vitro ADME", "conditions": "for oxidative metabolism by human liver microsome: 14C-labeled test compound 2 μmol/L, 0.5 mg protein/mL, 37° C., 20 min", "method": "(§1) Metabolizing Isoform Identification Test (Oxidative Metabolism by Microsome)\n(§2) As a reaction mixture for the CYP isoform identification, a reaction mixture containing microsome [^14C-labeled test compound (2 μmol/L), microsome (human liver microsome at 0.5 mg protein/mL or microsome expressing CYP at 50 pmol CYP/mL (Control microsome, CYP1A2, CYP2A6, CYP2B6, CYP2C8, CYP2C9, CYP2C19, CYP2D6, CYP2E1 or CYP3A4)), EDTA (0.05 mmol/L) and Na—K phosphate buffer (pH 7.4, 0.1 mol/L)] was prepared and, after preincubation at 37° C. for 5 min, a solution of the NADPH generating system [β-NADP+ (0.5 mmol/L), glucose-6-phosphate (G-6-P) (5.0 mmol/L), magnesium chloride (5.0 mmol/L) and G-6-P DH (1.0 unit/mL)] was added to start the reaction. For CYP expressing microsomes for CYP2A6 and CYP2C9, Tris-HCl buffer (pH 7.4, 0.1 mol/L) was used instead of Na—K phosphate buffer (pH 7.4, 0.1 mol/L).\n(§3) These reaction mixtures were incubated at 37° C. for 20 min, and a 3-fold amount of ethanol was added to the reaction mixtures to terminate the reaction. To the reaction mixture was added a predetermined amount of an unlabeled metabolite mixed solution, and the mixture was stirred (about 5 min), centrifuged (4° C., 3000 rpm, 10 min) and the supernatant was collected. To the residue was added a 3-fold amount of ethanol relative to the reaction mixture, and the mixture was stirred (about 5 min), and centrifuged (4° C., 3000 rpm, 10 min). The supernatant was collected and combined with the supernatant collected earlier, and the solvent was evaporated under a nitrogen stream at about 40° C. To the residue was added a predetermined amount of HPLC mobile phase or suitable solvent, and the mixture was stirred and used as an HPLC sample. The sample was injected into HPLC and a radiochromatogram was obtained. From the obtained radiochromatogram, the metabolism activity and metabolite generating activity of the ^14C-labeled test compound was calculated."}, "CYP2C19": {"biological_target": "CYP2C19 (Homo sapiens, UniProt P33261)", "sequence (P33261 whole entry, canonical isoform)": "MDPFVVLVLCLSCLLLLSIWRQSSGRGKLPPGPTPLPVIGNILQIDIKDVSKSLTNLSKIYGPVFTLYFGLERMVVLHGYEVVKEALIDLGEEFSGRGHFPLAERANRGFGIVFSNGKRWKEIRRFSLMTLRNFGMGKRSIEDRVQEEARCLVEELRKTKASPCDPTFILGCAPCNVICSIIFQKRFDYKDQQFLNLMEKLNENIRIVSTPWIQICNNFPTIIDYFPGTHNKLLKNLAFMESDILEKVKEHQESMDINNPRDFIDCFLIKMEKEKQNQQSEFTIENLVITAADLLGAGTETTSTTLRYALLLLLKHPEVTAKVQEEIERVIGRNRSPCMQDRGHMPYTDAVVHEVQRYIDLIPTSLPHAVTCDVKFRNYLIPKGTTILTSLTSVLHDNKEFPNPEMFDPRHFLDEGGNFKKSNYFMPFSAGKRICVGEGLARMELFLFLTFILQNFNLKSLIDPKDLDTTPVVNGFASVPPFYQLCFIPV", "test": "Metabolizing isoform identification test, microsome expressing CYP2C19", "assay_type": "in vitro ADME", "conditions": "microsome expressing CYP at 50 pmol CYP/mL, 2 μmol/L, 37° C., 20 min", "method": "as §1, §2\n(§4) These reaction mixtures were incubated at 37° C. for 20 min, and a 3-fold amount of ethanol was added to the reaction mixtures to terminate the reaction. To the reaction mixture was added a predetermined amount of an unlabeled metabolite mixed solution, and the mixture was stirred (about 5 min), centrifuged (4° C., 3000 rpm, 10 min) and the supernatant was collected. […] From the obtained radiochromatogram, the metabolism activity and metabolite generating activity of the ^14C-labeled test compound was calculated."}, "CYP3A4": {"biological_target": "CYP3A4 (Homo sapiens, UniProt P08684)", "sequence (P08684 whole entry, canonical isoform)": "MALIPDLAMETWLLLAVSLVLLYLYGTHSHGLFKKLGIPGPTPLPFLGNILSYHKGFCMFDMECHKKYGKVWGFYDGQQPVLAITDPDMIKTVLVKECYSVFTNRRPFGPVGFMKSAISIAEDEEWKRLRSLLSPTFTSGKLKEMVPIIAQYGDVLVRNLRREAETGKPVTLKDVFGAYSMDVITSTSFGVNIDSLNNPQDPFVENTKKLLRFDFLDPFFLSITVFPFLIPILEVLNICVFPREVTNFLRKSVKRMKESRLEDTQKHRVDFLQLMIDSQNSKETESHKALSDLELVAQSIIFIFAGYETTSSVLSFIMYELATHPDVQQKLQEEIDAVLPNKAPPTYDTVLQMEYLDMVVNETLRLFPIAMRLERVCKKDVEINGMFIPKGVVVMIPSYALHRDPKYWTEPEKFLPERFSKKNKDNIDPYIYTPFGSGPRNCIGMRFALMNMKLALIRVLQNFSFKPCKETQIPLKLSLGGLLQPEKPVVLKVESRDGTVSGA", "test": "Metabolizing isoform identification test, microsome expressing CYP3A4", "assay_type": "in vitro ADME", "conditions": "microsome expressing CYP at 50 pmol CYP/mL, 2 μmol/L, 37° C., 20 min", "method": "as §1, §2, §4"}, "CYP2C8": {"biological_target": "T2, CYP2C8 (Homo sapiens, UniProt P10632)", "T2 sequence (P10632 1-490)": "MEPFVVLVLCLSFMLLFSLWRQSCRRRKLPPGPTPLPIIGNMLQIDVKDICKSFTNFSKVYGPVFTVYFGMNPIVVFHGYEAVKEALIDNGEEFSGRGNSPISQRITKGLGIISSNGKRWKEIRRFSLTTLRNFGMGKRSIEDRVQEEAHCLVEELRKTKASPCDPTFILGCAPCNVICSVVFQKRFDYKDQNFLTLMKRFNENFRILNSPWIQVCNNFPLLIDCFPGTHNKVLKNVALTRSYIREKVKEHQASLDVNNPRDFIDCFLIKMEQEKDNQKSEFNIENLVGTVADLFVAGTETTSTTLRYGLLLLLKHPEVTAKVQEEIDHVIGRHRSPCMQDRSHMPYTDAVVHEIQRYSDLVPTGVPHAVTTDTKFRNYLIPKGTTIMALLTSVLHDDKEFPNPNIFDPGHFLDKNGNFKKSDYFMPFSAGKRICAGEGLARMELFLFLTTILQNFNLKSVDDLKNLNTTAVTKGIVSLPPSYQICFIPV", "test": "Metabolizing isoform identification test, microsome expressing CYP2C8", "assay_type": "in vitro ADME", "conditions": "microsome expressing CYP at 50 pmol CYP/mL, 2 μmol/L, 37° C., 20 min", "method": "as §1, §2, §4"}, "CYP2C9 [4]": {"biological_target": "T3, CYP2C9 (Homo sapiens, UniProt P11712)", "T3 sequence (P11712 whole entry)": "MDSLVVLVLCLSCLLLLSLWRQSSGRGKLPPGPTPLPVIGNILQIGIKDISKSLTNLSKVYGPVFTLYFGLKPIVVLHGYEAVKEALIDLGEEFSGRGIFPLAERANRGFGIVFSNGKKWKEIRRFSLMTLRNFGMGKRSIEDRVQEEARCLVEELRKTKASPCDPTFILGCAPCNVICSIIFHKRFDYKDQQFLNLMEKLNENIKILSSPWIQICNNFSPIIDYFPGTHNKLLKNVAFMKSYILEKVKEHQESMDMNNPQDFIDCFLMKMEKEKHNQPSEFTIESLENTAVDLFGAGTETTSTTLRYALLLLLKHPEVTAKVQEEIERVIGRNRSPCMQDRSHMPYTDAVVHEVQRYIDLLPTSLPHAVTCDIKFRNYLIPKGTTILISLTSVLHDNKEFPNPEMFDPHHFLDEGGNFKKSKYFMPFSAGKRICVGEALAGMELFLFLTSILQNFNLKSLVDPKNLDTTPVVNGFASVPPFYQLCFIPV", "test": "Investigation using an inhibitor (Sulfaphenazole) in human liver microsome", "assay_type": "in vitro ADME", "design": "human liver microsome (0.5 mg protein/mL); from tissue; host or cells: human liver microsome", "conditions": "Sulfaphenazole 10 μmol/L, test compound 0.2 and 2 μmol/L", "method": "On the other hand, as a reaction mixture for studying inhibitors, [^14C-labeled test compound (0.2 μmol/L and 2 μmol/L), inhibitor solution (Sulfaphenazole) (10 μmol/L), human liver microsome (0.5 mg protein/mL), EDTA (0.05 mmol/L) and Na—K phosphate buffer (pH 7.4, 0.1 mol/L)] was prepared and, after preincubation at 37° C. for 5 min, a solution of the NADPH generating system was added thereto to start the reaction.\nas §3, with “To the residue was added a predetermined amount of HPLC mobile phase or suitable solvent, and the mixture was stirred and used as an HPLC sample. The sample was injected into HPLC and a radiochromatogram was obtained.” left out"}, "CYP2C9 [5]": {"biological_target": "T3, CYP2C9", "test": "Metabolizing isoform identification test, microsome expressing CYP2C9", "assay_type": "in vitro ADME", "conditions": "microsome expressing CYP at 50 pmol CYP/mL, 2 μmol/L, 37° C., 20 min", "method": "as §1, §2, §4"}}, "note": "pEC50: −log10 of the molar value.", "data": [{"smiles": "CC(C)(Sc1nc(C(O)COc2ccc(-c3ccc(F)cc3)cc2)cs1)C(=O)O", "note": "(stereo not shown) [Example 2, 2-[(4-{2-[(4′-fluorobiphenyl-4-yl)oxy]-1-hydroxyethyl}-1,3-thiazol-2-yl)thio]-2-methylpropionic acid]", "values": [{"measurement": "TG lowering rate (%, 0.3 mg/kg, p.o.) TG", "setting": "[1]; first column", "result": 38, "unit": "%"}, {"measurement": "TG lowering rate (%, 0.3 mg/kg, p.o.) TG", "setting": "[1]; second column", "result": 34, "unit": "%"}, {"measurement": "TG lowering rate", "setting": "normal rats; 0.3 mg/kg", "result": 56, "unit": "%"}, {"measurement": "pEC50", "setting": "[2]", "result": 8.08}]}, {"smiles": "CC(C)(Sc1nc(C(=O)COc2ccc(-c3ccc(F)cc3)cc2)cs1)C(=O)O", "note": "[Example 3, 2-[(4-{[(4′-fluorobiphenyl-4-yl)oxy]acetyl}-1,3-thiazol-2-yl)thio]-2-methylpropionic acid]", "values": [{"measurement": "pEC50", "setting": "[2]", "result": 8.33}]}, {"smiles": "CC(C)(Sc1nc([C@H](O)COc2ccc(-c3ccc(F)cc3)cc2)cs1)C(=O)O", "note": "[Example 12, 2-[(4-{(1S)-2-[(4′-fluorobiphenyl-4-yl)oxy]-1-hydroxyethyl}-1,3-thiazol-2-yl)thio]-2-methylpropionic acid]", "values": [{"measurement": "oxidative metabolism by human liver microsome", "setting": "[3]", "result": "could not be confirmed"}, {"measurement": "involvement in the metabolism by CYP", "setting": "[3]; summary statement in description", "result": "not involved in the metabolism by CYP"}, {"measurement": "TG-lowering action", "setting": "normal rats", "result": 15.1, "unit": "%"}, {"measurement": "TG lowering rate", "setting": "normal rats; 0.1 mg/kg", "result": 52, "unit": "%"}, {"measurement": "pEC50", "setting": "[2]", "result": 8.51}, {"measurement": "transcription activation activity relative to compound A (times stronger)", "setting": "[2]; compared with compound A (10.41 nmol/l)", "result": "≥ 3", "unit": "times"}]}, {"smiles": "CCCCCCCN(CCc1ccc(SC(C)(C)C(=O)O)cc1)C(=O)Nc1ccc(F)cc1F", "note": "[GW-9578]", "values": [{"measurement": "TG lowering rate (%, 0.3 mg/kg, p.o.) TG", "setting": "[1]; first column", "result": "30-50%"}, {"measurement": "TG lowering rate (%, 0.3 mg/kg, p.o.) TG", "setting": "[1]; second column", "result": "30-50%"}, {"measurement": "TG lowering rate", "setting": "normal rats; 0.3 mg/kg", "result": "50-60%"}]}, {"smiles": "CC(C)(Sc1nc(CCOc2ccc(-c3ccc(F)cc3)cc2)cs1)C(=O)O", "note": "[compound A, 2-[(4-{2-[(4′-fluorobiphenyl-4-yl)oxy]ethyl}-1,3-thiazol-2-yl)thio]-2-methylpropionic acid]", "values": [{"measurement": "metabolism by CYP2C19", "setting": "CYP2C19", "result": "also metabolized"}, {"measurement": "oxidative metabolism by human liver microsome", "setting": "[3]", "result": "observed"}, {"measurement": "TG-lowering action", "setting": "normal rats", "result": 0.7, "unit": "%"}, {"measurement": "metabolism by CYP3A4", "setting": "CYP3A4", "result": "also metabolized"}, {"measurement": "metabolism by CYP2C8", "setting": "CYP2C8", "result": "also metabolized"}, {"measurement": "pEC50", "setting": "[2]", "result": 7.98}, {"measurement": "enzyme mainly involved in the metabolism (investigation using the inhibitor)", "setting": "CYP2C9 [4]", "result": "CYP2C9"}, {"measurement": "metabolism by CYP2C9", "setting": "CYP2C9 [5]", "result": "mainly metabolized by CYP2C9"}]}]}
